{"source": "paper PMC9515143", "about": "“Phosphorylation of Jhd2 by the Ras-cAMP-PKA(Tpk2) pathway regulates histone modifications and autophagy” (Nature Communications, 2022)", "key": {"[1]": {"test_system": "Tpk2-as", "assay": "Intracellular Jhd2 phosphorylation in Tpk2-as mutant with 1NM-PP1", "format": "cell-based, budding yeast (Saccharomyces cerevisiae)", "conditions": "25 μM 1NM-PP1, 0.5 hr, Western blot", "procedure": "(§1) To examine the effect of glucose on histone modifications, yeast cells were grown in 2% glucose-containing YPD (Yeast Extract Peptone Dextrose) medium until OD600 of 0.7–1.0. Cells were then collected, washed and resuspended in YP medium for 3 hr followed by treatment with different concentrations of glucose for 0.5 hr. For 1NM-PP1 (MCE, HY-13804) treatment, cells were grown in 2% YPD until OD600 of 0.7–1.0. Cells were then treated with 25 μM 1NM-PP1 for 0.5 hr. For FBP and pyruvate treatment, cells were pre-treated with Zymolase (Mpbio, 08320921) to increase the permeability. In brief, cells were grown in YPD medium until OD600 of 0.7–1.0, centrifuged and resuspended in 1 ml SB buffer (100 mM Sorbitol, 20 mM Tris pH 7.4). 10 μl Zymolase was then added and incubated at 30 °C for 15 min. The spheroplasts were washed and cultured in YPD medium containing different concentrations of FBP and pyruvate for 3 hr.\n(§2) Cells were grown in 5 ml YPD or selective medium until OD600 of 0.7–1.0. Cells were harvested and lysed in alkaline lysis buffer (2 M NaOH, 8% 2-mercaptoethanol). After centrifugation, the protein pellet was resuspended in 150 μl 2×SDS-sample buffer. Protein samples were separated by 8–15% SDS-PAGE and transferred to PVDF membrane. […] The protein bands were visualized using the ECL Chemiluminescence Detection Kit (Bio-Rad, 170–5061) and quantified with Image J software (v.1.8.0). […]"}, "[2]": {"test_system": "Tpk1-as", "assay": "Intracellular H3K4me3 in Tpk1-as mutant with 1NM-PP1", "format": "cell-based, budding yeast (Saccharomyces cerevisiae)", "conditions": "25 μM 1NM-PP1, 0.5 hr, Western blot", "procedure": "as §1, §2"}, "[3]": {"test_system": "WT Tpk2", "assay": "In vitro kinase assay, WT Tpk2, Jhd2 substrate", "format": "biochemical, budding yeast (Saccharomyces cerevisiae)", "conditions": "25 μM 1NM-PP1, in vitro kinase assay, 30 °C, Western blot", "procedure": "(§3) 0–300 ng purified Jhd2 was mixed with or without 200 ng TAP purified Tpk2 in 2×kinase reaction buffer (100 mM Tris-HCl pH 7.4, 100 mM MgCl2, 10 mM ATP, 0.2 μM PMSF, 1 mM Na3VO4, 5% glycerol) at 30 °C. Equal aliquots were taken at different time points, and the reaction was quenched by adding 2×SDS-PAGE loading buffer and incubated at 95 °C for 10 min. Boiled samples were resolved on 10% SDS-PAGE and subjected to Western blot analysis."}, "[4]": {"test_system": "WT cells", "assay": "Intracellular Jhd2 phosphorylation in WT cells with 1NM-PP1", "format": "cell-based, budding yeast (Saccharomyces cerevisiae)", "conditions": "25 μM 1NM-PP1, 0.5 hr, Western blot", "procedure": "as §1, §2"}, "[5]": {"test_system": "Tpk3-as", "assay": "Intracellular H3K4me3 in Tpk3-as mutant with 1NM-PP1", "format": "cell-based, budding yeast (Saccharomyces cerevisiae)", "conditions": "25 μM 1NM-PP1, 0.5 hr, Western blot", "procedure": "as §1, §2"}, "[6]": {"test_system": "Tpk2-as", "assay": "Intracellular H3K4me3 in Tpk2-as mutant with 1NM-PP1", "format": "cell-based, budding yeast (Saccharomyces cerevisiae)", "conditions": "25 μM 1NM-PP1, 0.5 hr, Western blot", "procedure": "as §1, §2"}, "[7]": {"test_system": "Tpk2-as", "assay": "In vitro kinase assay, Tpk2-as, Jhd2 substrate", "format": "biochemical, budding yeast (Saccharomyces cerevisiae)", "conditions": "25 μM 1NM-PP1, in vitro kinase assay, 30 °C, Western blot", "procedure": "as §3"}}, "data": [{"smiles": "CC(C)(C)n1nc(Cc2cccc3ccccc23)c2c(N)ncnc21", "note": "[1NM-PP1]", "values": [{"measurement": "intracellular Jhd2 phosphorylation, Tpk2-as mutant", "setting": "[1]", "value": "significantly reduced in Tpk2-as mutant"}, {"measurement": "intracellular H3K4me3, Tpk1-as mutant", "setting": "[2]", "value": "significantly reduced by 1NM-PP1 in Tpk2-as mutant but not Tpk1-as and Tpk3-as mutants"}, {"measurement": "Jhd2 phosphorylation in vitro, WT Tpk2", "setting": "[3]", "value": "Jhd2 was phosphorylated by WT Tpk2 but not Tpk2-as mutant when treated with 25 μM 1NM-PP1"}, {"measurement": "intracellular Jhd2 phosphorylation, WT cells", "setting": "[4]", "value": "significantly reduced in Tpk2-as mutant but not WT cells"}, {"measurement": "intracellular H3K4me3, Tpk3-as mutant", "setting": "[5]", "value": "significantly reduced by 1NM-PP1 in Tpk2-as mutant but not Tpk1-as and Tpk3-as mutants"}, {"measurement": "intracellular H3K4me3, Tpk2-as mutant", "setting": "[6]", "value": "significantly reduced by 1NM-PP1 in Tpk2-as mutant"}, {"measurement": "inhibition of Tpk2-catalyzed Jhd2 phosphorylation in vitro, Tpk2-as", "setting": "[7]", "value": "directly inhibited Tpk2-catalyzed Jhd2 phosphorylation"}]}]}
